According to US7041698B2, “Hepatitis C virus inhibitors” (Bristol-Myers Squibb Company, priority 2002, dated 2006):

Experiments:
[1] = target: T1, HCV NS3/4A protease complex (UniProt P27958, C1454S/C1711G, species not given); assay: Recombinant HCV NS3/4A protease complex FRET peptide assay (strain not stated); format: biochemical; details: HCV NS3/4A protease enzyme assay, read-out: IC50 range
T1 construct: fused on or other part: Three-lysine solubilising tail at the C-terminus of NS4A

[2] = tested on: HCV replicon in Huh7 cells; assay: HCV replicon cell-based assay; set-up: species or system HCV strain 1B; details: Hepatitis C virus, Huh-7, 96 h, HCV replicon, 4 days, read-out: EC50 range
Outline: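 Huh7 cells carrying a genotype 1b subgenomic replicon (NS3-NS5B, neo) treated 4 days at 37° C with compound (0.5% DMSO final). NS3 protease activity read in lysates with 10 μM FRET peptide (340/490 nm, kinetic), giving EC50. Confirmed by Taqman qRT-PCR of HCV RNA and a Renilla luciferase replicon.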

Structure (SMILES)	IC50 [1] [nM]	EC50 [2] [nM]
C=CC1C[C@]1(NC(=O)[C@@H]1C[C@@H](OC(=O)Nc2cc(C)ccc2-c2nccs2)CN1C(=O)[C@@H](NC(=O)OC(C)(C)C)C(C)(C)C)C(=O)NS(=O)(=O)C1CC1 (stereo partly drawn) [Compound 94, BocNH-P3(t-BuGly)-P2(Hyp(O—CO(NH—(5-Methyl-2-thiazol-2-yl-phenyl))))-P1(1R,2S VinylAcca)—CONHSO2Cyclopropane]	< 100	< 100
C=CC1C[C@]1(NC(=O)[C@@H]1C[C@@H](OC(=O)Nc2cc(OC)ccc2-n2cccn2)CN1C(=O)[C@@H](NC(=O)OC(C)(C)C)C(C)(C)C)C(=O)NS(=O)(=O)C1CC1 (stereo partly drawn) [Compound 95, BocNH-P3(t-BuGly)-P2(Hyp(O—CO(NH—(5-Methoxy-2-pyrazol-1-yl-phenyl))))-P1(1R,2S VinylAcca)—CONHSO2Cyclopropane]	< 100	100 to 1000
C=CC1C[C@]1(NC(=O)[C@@H]1C[C@@H](OC(=O)Nc2cc(C)ccc2-n2cccn2)CN1C(=O)[C@@H](NC(=O)OC(C)(C)C)C(C)(C)C)C(=O)NS(=O)(=O)C1CC1 (stereo partly drawn) [Compound 96, BocNH-P3(t-BuGly)-P2(Hyp(O—CO(NH—(5-Methyl-2-pyrazol-1-yl-phenyl))))-P1(1R,2S VinylAcca)—CONHSO2Cyclopropane]	< 100	< 100
C=CC1C[C@]1(NC(=O)[C@@H]1C[C@@H](OC(=O)Nc2cc(C)ccc2-n2nccn2)CN1C(=O)[C@@H](NC(=O)OC(C)(C)C)C(C)(C)C)C(=O)NS(=O)(=O)C1CC1 (stereo partly drawn) [Compound 97, BocNH-P3(t-BuGly)-P2(Hyp(O—CO(NH—(5-Methyl-2-[1,2,3]triazol-2-yl-phenyl))))-P1(1R,2S VinylAcca)—CONHSO2Cyclopropane]	< 100	< 100
C=CC1C[C@]1(NC(=O)[C@@H]1C[C@@H](OC(=O)Nc2cc(C#N)ccc2-n2cccn2)CN1C(=O)[C@@H](NC(=O)OC(C)(C)C)C(C)(C)C)C(=O)NS(=O)(=O)C1CC1 (stereo partly drawn) [Compound 98, BocNH-P3(t-BuGly)-P2(Hyp(O—CO(NH—(5-Cyano-2-pyrazol-1-yl-phenyl))))-P1(1R,2S VinylAcca)—CONHSO2Cyclopropane]	< 100	< 100
C=CC1C[C@]1(NC(=O)[C@@H]1C[C@@H](OC(=O)Nc2cc(F)ccc2-n2cccn2)CN1C(=O)[C@@H](NC(=O)OC(C)(C)C)C(C)(C)C)C(=O)NS(=O)(=O)C1CC1 (stereo partly drawn) [Compound 99, BocNH-P3(t-BuGly)-P2(Hyp(O—CO(NH—(5-Fluoro-2-pyrazol-1-yl-phenyl))))-P1(1R,2S VinylAcca)—CONHSO2Cyclopropane]	< 100	< 100
C=C[C@@H]1C[C@]1(NC(=O)[C@@H]1C[C@@H](OC(=O)Nc2cc(C(F)(F)F)ccc2-n2cccn2)CN1C(=O)[C@@H](NC(=O)OC(C)(C)C)C(C)(C)C)C(=O)NS(=O)(=O)C1CC1 [Compound 100, BocNH-P3(t-BuGly)-P2(Hyp(O—CO(NH—(5-trifluoromethyl-2-pyrazol-1-yl-phenyl))))-P1(1R,2S VinylAcca)—CONHSO2Cyclopropane]	< 100	< 100
C=C[C@@H]1C[C@]1(NC(=O)[C@@H]1C[C@@H](OC(=O)N2CCc3ccccc3C2)CN1C(=O)[C@@H](NCC1CC1)C(C)(C)C)C(=O)NS(=O)(=O)C1CC1 [Compound 101]	< 100	1000 to 10000
C=C[C@@H]1C[C@]1(NC(=O)[C@@H]1C[C@@H](OC(=O)Nc2ccccc2C(=O)OCC)CN1C(=O)[C@@H](NC(=O)OC)C(C)(C)C)C(=O)NS(=O)(=O)C1CC1 [Compound 110]	< 100	100 to 1000
C=C[C@@H]1C[C@]1(NC(=O)[C@@H]1C[C@@H](OC(=O)Nc2ccccc2C(=O)OCC)CN1C(=O)[C@@H](NC(=O)OCC)C(C)(C)C)C(=O)NS(=O)(=O)C1CC1 [Compound 111]	< 100	100 to 1000
